How the values were obtained:
Assay type in all cases: physicochemical
[1] = Relaxivity measurements at 1.4 T (MiniSpec mq60, 60 MHz, 37 °C) in water and human plasma; settings: 1.41 T, normalized to Gd
Method: Relaxivity Measurements at 1.4 T
Relaxivity measurements at 1.41 T were performed using a MiniSpec mq60 spectrometer (Bruker Analytik, Karlsruhe, Germany) operating at a resonance frequency of 60 MHz and a temperature of 37° C. The T1 relaxation times were determined using the standard inversion recovery (IR) method with a fixed relaxation delay of at least 5×T1. The variable inversion time (TI) was calculated automatically by the standard software of the MiniSpec mq60 (8 steps). The T2 measurements were done by using a Carr-Purcell-Meiboom-Gill (CPMG) pulse sequence, applying a relaxation delay of at least 5×T1.
Each relaxivity measurement was performed using three different Gd concentrations (3 concentrations between 0.05 and 2 mM). The T1 and T2 relaxation times of the example compounds 1 to 10 were measured in different media for example in water and human plasma. Human plasma preparation: For each experiment fresh blood was taken from a volunteer using 10 mL citrate-tubes (Sarstedt S-Monovette 02.1067.001, 10 mL, Citrate). The 10 mL citrate-tubes were carefully inverted 10 times to mix blood and anticoagulant and centrifuged for 15 minutes at 1811 g at room temperature (Eppendorf, Centrifuge 5810R).
The relaxivities ri (where i=1, 2) were calculated on the basis of the measured relaxation rates Ri in water and plasma: Ri=Ri(0)+ri[CGd], where Ri(0) represent the relaxation rate of the respective solvent and CGd the concentration of the compound normalized to the Gadolinium. The Gadolinium concentrations of the investigated solutions were verified by Inductively Coupled Plasma Mass Spectrometry (ICP-MS Agilent 7500a, Waldbronn, Germany).

[2] = Relaxivity measurements at 3.0 T (whole body MRI scanner, 37 °C) in water and human plasma; settings: normalized to Gd, average ± standard deviation
Method: Relaxivity Measurements at 3.0 T
Relaxivity measurements at 3.0 T were performed with a whole body 3.0 T MRI Scanner (Philips Intera, Philips Healthcare, Hamburg, Germany) using a knee-coil (SENSE-Knee-8, Philips Healthcare, Hamburg, Germany). The sample tubes (CryoTubetm Vials, Thermo Scientific 1.8 mL, Roskilde, Denmark) were positioned in 3 rows of 4 and 5 tubes in a plastic holder in a box filled with water. The temperature was adjusted to 37° C. For the MRI sequence the shortest possible echo-time (TE) with 7.46 milliseconds was used. The inversion times were chosen to optimize the sequence to measure T1 values corresponding to the estimated T1 range of all relaxation times of contrast media containing solutions. The following inversion times (TIs) were applied: 50, 100, 150, 200, 300, 500, 700, 1000, 1400, 2100, 3200, and 4500 milliseconds. The sequence was run with a constant relaxation delay of 3.4 seconds after the registration of the last echo (variable TR in the range from 3450 to 7900 milliseconds). For details of the fit procedure, see Rohrer et. al. (Invest. Radiol. 2005; 40, 11: 715-724). The experimental matrix of the phantom measurement was 320×320.
The relaxivities were evaluated using three different concentrations of each compound (3 concentrations between 0.05 and 2 mM).
The T1 relaxation times of Example compounds were measured in water and human plasma. Human plasma preparation: For each experiment fresh blood was taken from a volunteer using 10 mL citrate-tubes (Sarstedt S-Monovette 02.1067.001, 10 mL, Citrate). The 10 mL citrate-tubes were carefully inverted 10 times to mix blood and anticoagulant and centrifuged for 15 minutes at 1811 g at room temperature (Eppendorf, Centrifuge 5810R).
The relaxivities ri (where i=1, 2) were calculated on the basis of the measured relaxation rates Ri in water and plasma: Ri=Ri(0)+ri[CGd], where Ri(0) represent the relaxation rate of the respective solvent and CGd the concentration of the compound normalized to the Gadolinium (Table 2).

[3] = Water solubility (exploratory, 10 mM Tris-HCl, 20 °C); settings: water (10 mM Tris-HCl buffer), pH 7.4
Method: The exploratory water solubilities of the compounds were determined at room temperature (20° C.) in 0.5 mL buffer solution (10 mM Tris-HCl) in the microcentrifuge tubes (Eppendorf, 2.0 mL safe-lock caps). The solid compounds were added stepwise to the buffer solution. The suspension was mixed using a shaker (Heidolph Reax 2000) and treated 5 min in an ultrasound bath (Bandelin, Sonorex Super RK255H).

[4] = Dynamic CT diffusion phantom study (dialysis cassette in fetal bovine serum); settings: dialysis cassette 20,000 MWCO, 20 mmol Gd/L, CT signal over 30 h
Method: The described dynamic CT diffusion study compares the ability of Examples 1-10 and Reference compounds 1 and 4 to pass a semipermeable membrane (20 kDa). A 128-row clinical CT device (SOMATOM Definition, 128; Siemens Healthcare, Forchheim, Germany) was used to monitor the diffusion through a semipermeable membrane at 100 kV and 104 mA. Single measurements were performed at 0 min, 1 min, 2 min, 3 min, 5 min, 10 min, 15 min, 20 min, 30 min, 45 min, 60 min, 2 h, 3 h, 5 h, 7 h, 22 h, 24 h, 30 h after placing the dialysis cassette (Slide-A-Lyser, 20,000 MWCO, 0.1-0.5 mL Capacity, Thermo Scientific, Roskilde, Denmark) filled with contrast agent in fetal bovine serum solution (FBS, Sigma, F7524). The images were reconstructed with a slice thickness of 2.4 mm and a B30 convolution kernel. The used concentration in the dialysis cassettes of the investigated Examples 1-10 and Reference compounds 1 and 4 was 20 mmol Gd/L.
The imaging results for all investigated Examples and the Reference compounds 1 and 4 for the time points 0 min and 30 h after placing the cassettes in the FBS solution are depicted in FIG. 1. For image analysis, regions of interest were manually drawn on 1 centrally located slice for each time point (a representative measurement region is indicated in FIG. 1: Image RC1).

| Structure (SMILES) | r1 human plasma [1] | r1 water [1] | r1 human plasma [2] | r1 water [2] | Solubility [3] | Diffusion half-live (20 kDa) [4] |
| --- | --- | --- | --- | --- | --- | --- |
| COCCN(CC(=O)NCC(CNC(=O)CN(CCOC)C(=O)CN1CCN(CC(=O)[O-])CCN(CC(=O)[O-])CCN(CC(=O)[O-])CC1)(CNC(=O)CN(CCOC)C(=O)CN1CCN(CC(=O)[O-])CCN(CC(=O)[O-])CCN(CC(=O)[O-])CC1)CNC(=O)CN(CCOC)C(=O)CN1CCN(CC(=O)[O-])CCN(CC(=O)[O-])CCN(CC(=O)[O-])CC1)C(=O)CN1CCN(CC(=O)[O-])CCN(CC(=O)[O-])CCN(CC(=O)[O-])CC1.[Gd+3].[Gd+3].[Gd+3].[Gd+3] [Example 3, Tetragadolinium {4,10-bis(carboxylatomethyl)-7-[15-(2-methoxyethyl)-10,10-bis[({[(2-methoxyethyl){[4,7,10-tris(carboxylatomethyl)-1,4,7,10-tetraazacyclododecan-1-yl]-acetyl}amino]acetyl}amino)methyl]-7,13,16-trioxo-5-{[4,7,10-tris(carboxylatomethyl)-1,4,7,10-tetraazacyclododecan-1-yl]acetyl}-2-oxa-5,8,12,15-tetraazaheptadecan-17-yl]-1,4,7,10-tetraazacyclododecan-1-yl}acetate] | 11.7 L/mmol/s | 10.3 L/mmol/s | 10.9 ± 0.1 L/mmol/s | 9.5 ± 0.1 L/mmol/s | >1000 mg/100 mL | 11.6 h |
| CCOCCN(CC(=O)NCC(CNC(=O)CN(CCOCC)C(=O)CN1CCN(CC(=O)[O-])CCN(CC(=O)[O-])CCN(CC(=O)[O-])CC1)(CNC(=O)CN(CCOCC)C(=O)CN1CCN(CC(=O)[O-])CCN(CC(=O)[O-])CCN(CC(=O)[O-])CC1)CNC(=O)CN(CCOCC)C(=O)CN1CCN(CC(=O)[O-])CCN(CC(=O)[O-])CCN(CC(=O)[O-])CC1)C(=O)CN1CCN(CC(=O)[O-])CCN(CC(=O)[O-])CCN(CC(=O)[O-])CC1.[Gd+3].[Gd+3].[Gd+3].[Gd+3] [Example 4, Tetragadolinium {4,10-bis(carboxylatomethyl)-7-[16-(2-ethoxyethyl)-11,11-bis[({[(2-ethoxyethyl){[4,7,10-tris(carboxylatomethyl)-1,4,7,10-tetraazacyclododecan-1-yl]-acetyl}amino]acetyl}amino)methyl]-8,14,17-trioxo-6-{[4,7,10-tris(carboxylatomethyl)-1,4,7,10-tetraazacyclododecan-1-yl]acetyl}-3-oxa-6,9,13,16-tetraazaoctadecan-18-yl]-1,4,7,10-tetraazacyclododecan-1-yl}acetate] | 12.5 L/mmol/s | 11.1 L/mmol/s | 11.3 ± 0.01 L/mmol/s | 10.1 ± 0.2 L/mmol/s | >1000 mg/100 mL | 10.1 h |
| CC(C)N(CC(=O)NCC(CNC(=O)CN(C(=O)CN1CCN(CC(=O)[O-])CCN(CC(=O)[O-])CCN(CC(=O)[O-])CC1)C(C)C)(CNC(=O)CN(C(=O)CN1CCN(CC(=O)[O-])CCN(CC(=O)[O-])CCN(CC(=O)[O-])CC1)C(C)C)CNC(=O)CN(C(=O)CN1CCN(CC(=O)[O-])CCN(CC(=O)[O-])CCN(CC(=O)[O-])CC1)C(C)C)C(=O)CN1CCN(CC(=O)[O-])CCN(CC(=O)[O-])CCN(CC(=O)[O-])CC1.[Gd+3].[Gd+3].[Gd+3].[Gd+3] [Example 5, Tetragadolinium [4,10-bis(carboxylatomethyl)-7-{3,13-diisopropyl-8,8-bis({[(isopropyl-{[4,7,10-tris(carboxylatomethyl)-1,4,7,10-tetraazacyclododecan-1-yl]acetyl}amino)-acetyl]amino}methyl)-2,5,11,14-tetraoxo-15-[4,7,10-tris(carboxylatomethyl)-1,4,7,10-tetraazacyclododecan-1-yl]-3,6,10,13-tetraazapentadec-1-yl}-1,4,7,10-tetraazacyclo-dodecan-1-yl]acetate] | 13.1 L/mmol/s | 11.1 L/mmol/s | 11.6 ± 0.4 L/mmol/s | 10.2 ± 0.1 L/mmol/s | >1000 mg/100 mL | 10.8 h |
| O=C([O-])CN1CCN(CC(=O)[O-])CCN(CC(=O)N(CC(=O)NCC(CNC(=O)CN(C(=O)CN2CCN(CC(=O)[O-])CCN(CC(=O)[O-])CCN(CC(=O)[O-])CC2)C2CC2)(CNC(=O)CN(C(=O)CN2CCN(CC(=O)[O-])CCN(CC(=O)[O-])CCN(CC(=O)[O-])CC2)C2CC2)CNC(=O)CN(C(=O)CN2CCN(CC(=O)[O-])CCN(CC(=O)[O-])CCN(CC(=O)[O-])CC2)C2CC2)C2CC2)CCN(CC(=O)[O-])CC1.[Gd+3].[Gd+3].[Gd+3].[Gd+3] [Example 7, Tetragadolinium [4,10-bis(carboxylatomethyl)-7-{3,13-dicyclopropyl-8,8-bis({[(cyclopropyl{[4,7,10-tris(carboxylatomethyl)-1,4,7,10-tetraazacyclododecan-1-yl]acetyl}-amino)acetyl]amino}methyl)-2,5,11,14-tetraoxo-15-[4,7,10-tris(carboxylatomethyl)-1,4,7,10-tetraazacyclododecan-1-yl]-3,6,10,13-tetraazapentadec-1-yl}-1,4,7,10-tetra-azacyclododecan-1-yl]acetate] | 12.1 L/mmol/s | 10.6 L/mmol/s | 11.1 ± 0.1 L/mmol/s | 9.7 ± 0.1 L/mmol/s | >1000 mg/100 mL | 14.0 h |
